Measured values taken from patent publication US8017649B2, “Flavonoid compounds and uses thereof” (Howard Florey Institute of Experimental Physiology and …, priority 2005, dated 2011).
“Also recorded” adds a separate entry of the source.

Tests used:
[1] = test system: superoxide anions generated in rat aorta; test: Superoxide anion production in rat isolated aortic segments (lucigenin chemiluminescence, NADPH); format: cell-based; details: disodium salt
Method: Superoxide anion production in rat isolated aortic segments was determined using lucigenin chemiluminescence. Aortic rings were prepared as described above and then placed in ice-cold Krebs-(N-[2-Hydroxyethyl]piperazine-N′-[2-ethanesulfonic acid] (HEPES buffer) (composition (mM); NaCl 99.0, KCl 4.7, KH2PO4 1.0, MgSO4·7H2O 1.2, D-glucose 11.0, NaHCO3 25.0, CaCl2·2H2O 2.5, Na-HEPES 20.0). Aortic rings were pre-incubated for 45 minutes at 37° C. with a pH 7.4, in Krebs-HEPES buffer containing diethylthiocarbamic acid (DETCA, 10^−3 M) to inactivate superoxide dismutase and β-nicotinamide adenine dinucleotide phosphate (NADPH, 10^−4 M) as a substrate for NADPH oxidase and either 3′,4′-dihydroxyflavonol (10^−4 M) as a positive control, vehicle, 3-hydroxyflavone-3-hemiadipate, 3′,4′-dihydroxy-3-hemiadipate, 3-hydroxyflavone-3-phosphate (10^−8-10^−4 M). Background photon emission was measured for 12 cycles in a 96-well Optiplate containing 0.3 ml per well of Krebs-HEPES buffer together with lucigenin (5×10^−5 M) and vehicle or flavonoid (10^−8-10^−4 M). Each cycle was counted every one minute. After background reading was completed the incubated aortic rings were transferred to the appropriate wells and photon emission was recounted as described above. The tissue was then placed in a 65° C. oven for 48 hours to allow superoxide production to be normalised to dry tissue weight.
The effects of vehicle, 3′,4′-dihydroxyflavone-3-hemiadipate (21) (DiOHF3HA, 10^−8 M-10^−4 M) and DiOHF (10^−4 M) in the presence and absence of Butyryl cholinesterase (BuCHE), 100, 300 and 1000 U/L) on the level of superoxide anions generated in rat isolated aortic segments in the presence of NADPH was expressed as a percentage of control. The method used was as described above except for the addition of the butyryl cholinesterase.
The effect of vehicle, 3-hydroxyflavone-3-phosphate (10^−8 to 10^−4 M) in the presence or absence of phosphatase (1000 U/L) on the level of superoxide anions generated in rat aorta in the presence of NADPH expressed as a percentage of control was determined as described above for the 3′,4′-dihydroxyflavone-3-hemiadipate.

[2] = test system: endothelium intact aortic rings; test: Ca2+-induced contraction of rat aortic rings in Ca2+-free high-K+ solution; format: cell-based
Method: To determine the effect of flavonoids on responses to the influx of extracellular Ca^2+, contractile responses to exogenous application of Ca^2+ were examined in the presence of flavonoids in Ca^2+-free high-K^+ solution (60 mM, KPSS). Aortic rings were initially equilibrated at a resting tension of 1 g in normal Ca^2+-free PSS for 45 minutes. The bath medium was then replaced with Ca^2+-free KPSS for 45 minutes to determine a reference contraction to Ca^2+ (3×10^−3 M). Following a 30 minute re-equilibration period with Ca^2+-free PSS, the cumulative contractile responses to Ca^2+ (10^−5−3×10^−3 M) were determined in KPSS in the presence of a range of concentrations (10^−8-10^−4 M) of vehicle, 3′,4′-dihydroxyflavonol, 3-hydroxyflavone-3-hemiadipate, 3′,4′-dihydroxy-3-hemiadipate, 3-hydroxyflavone-3-phosphate. A 20 minute incubation period was allowed for the flavonoids before examining the responses to Ca^2+.
To determine the effect of flavonoids on responses to the influx of extracellular Ca^2+, contractile responses to exogenous application of Ca^2+ were examined in the presence of flavonoids in Ca^2+-free high-K^+ solution (60 mM, K+-PSS). Aortic rings were initially equilibrated at a resting tension of 1 g in Ca^2+-free PSS for 45 minutes. The bath medium was then replaced with Ca^2+-free K+-PSS for 45 minutes to determine a reference contraction to added Ca^2+ (3 mM). Following a 30 minute re-equilibration period with Ca^2+-free PSS, the cumulative contractile responses to Ca^2+ (10^−5−3×10^−3 M) were determined in K^+ PSS in the presence of vehicle (0.1% DMSO), or a range of concentrations (10^−7-10^−4 M) of 3′-hydroxyflavonol, F3HA, DiOHF3HA or F3P. A 20 minute incubation period was allowed for the flavonoids before examining the responses to Ca^2+. Experiments were conducted in the presence and absence of BuCHE (1000 U/L) to cleave the adipate in F3HA and DiOHF3HA. In experiments using F3P, phosphatase (1000 U/L) was used in some experiments to cleave the phosphate.

[3] = test system: endothelium intact aortic rings; test: Effect on ACh relaxation of precontracted rat aortic rings; format: cell-based; details: for Rmax of ACh relaxation: n=5
Method: (§1) After wash out and re-equilibration for 30 min, the aortic rings were then submaximally precontracted with PE and U46619, which were used to produce an active tension of 45-60% of the KPSS-induced maximum contraction. When investigating the effects of the flavonoids, flavonol, flavone-3-hemiadipate (F3HA), 3′, 4′-dihydroxyflavone, 3′,4′-dihydroxyflavonol, 3′,4′-dihydroxyflavone-3-hemiadipate (DiOHF3HA), and flavone-3-phosphate (F3P) on vasorelaxant responses, rings were incubated with one of the compounds for 20 mins before they were precontracted submaximally, followed by a cumulative-concentration response curve to ACh (100 nM-10 μM) or SNP ([…]). In experiments using F3P 1000U/L phosphatase was used in some experiments to cleave the phosphate. Some experiments were conducted in the presence and absence of butyryl cholinesterase (BuCHE, 1000 U/L) to cleave the adipate in DiOHF3HA and F3HA.

[4] = test system: aortic rings; test: Effect on SNP relaxation of precontracted rat aortic rings; format: cell-based; details: in the presence of BuCHE or phosphatase
Method: as §1

[5] = test system: endothelium-intact aortic rings treated with pyrogallol; test: Vasorelaxation to ACh in the presence of oxidative stress (pyrogallol); format: cell-based, rat; details: pyrogallol 2×10^−5 M, F3P plus phosphatase; disodium salt
Method: Control cumulative relaxation responses to ACh were compared with those obtained from endothelium-intact aortic rings treated with pyrogallol (2×10^−5 M). The effects of vehicle (0.1% DMSO), phosphatase (1000 U/L) or F3P (10^−6-10^−4 M) on responses to ACh in the rat isolated aortic rings exposed to pyrogallol (2×10^−5 M) were also determined. Pyrogallol was added when the aortic rings had reached a stable level of contraction with PE and U44619 at a level between 50 and 70% of KPSS-induced tension and 10 minutes was allowed before determining the cumulative concentration-response curves to ACh. In some experiments using F3P 1000 U/L phosphatase was used to cleave the phosphate.

[6] = test system: anaesthetised rats; test: Arterial pressure and heart rate in anaesthetised rats after intravenous injection; format: in vivo, rat; details: intravenous, anaesthetised rats; disodium salt
Method: A unit dosage of an aqueous solution of 3-hydroxyflavone-3-hemiadipate (15) was administered to a group of male anesthetized Sprague Dawley rats intravenously and the blood pressure monitored over a period of time.
Male Sprague-Dawley rats (250-350 g) were anaesthetised with pentobarbitone sodium (60 mg kg^−1, ip). The trachea was isolated and cannulated with polyethylene tracheal tube (I.D. 2.0 mm), and the rat was allowed to breathe spontaneously.
The right carotid artery was cannulated and connected with a heparinised saline filled cannula (O.D. 0.75, I.D, 0.58 mm) and connected to a pressure transducer. Mean and phasic arterial pressure were continuously measured and recorded on a polygraph. The heart rate, was derived from the phasic arterial pressure using a tachometer.
DiOHF3HA ([…]) was injected intravenously, allowing at least 30 min between injections, and the peak changes in mean arterial pressure and heart rate measured. […] In a separate group of experiments ACh (0.3 mg/kg iv) and phenylephrine (PE, […]) were injected before and 30 minutes after DiOHF3HA (3 mg/kg iv), a time when arterial pressure and heart rate had returned to control levels. […]

For `O=c1c(OP(=O)([O-])[O-])c(-c2ccccc2)oc2ccccc12.[Na+].[Na+]` [F3P, 3-Hydroxyflavone-3-phosphate disodium salt], the “effect on superoxide generation” value ([1]; in the presence of cleaving enzyme (BuCHE for hemiadipates, phosphatase for phosphate, 1000 U/L)) was “concentration-dependent inhibition of superoxide levels; also recorded: inhibit superoxide levels produced by rat aorta”, the “effect on superoxide generation” value ([1]; in the presence of cleaving enzyme (BuCHE for hemiadipates, phosphatase for phosphate, 1000 U/L), listed as flavone-3-phosphate) was “concentration dependent decrease in the levels of superoxide” and the “effect on superoxide generation” value ([1]; substance alone, no added esterase/phosphatase, up to 10^−4 M, NADPH) was “no effect on superoxide generation; also recorded: no antioxidant or vascular activity”. The “effect on superoxide generation” value ([1]; substance alone, no added esterase/phosphatase, up to 10^−4 M, NADPH, listed as 3-hydroxyflavone-3-phosphate) was “measurable effect on the superoxide anion generation”, the “effect on Ca^2+-induced contraction” value ([2]; alone, highest concentration 10^−4 M) was “partial inhibition of the calcium-induced contraction” and the “effect on Ca^2+-induced contraction” value ([2]; alone, over the concentration range tested) was “small inhibition of calcium-induced contraction”. For the same molecule, the “effect on Ca^2+-induced contraction” value ([2]; in the presence of BuCHE or phosphatase (1000 U/L), listed as flavone-3-phosphate, disodium salt) was “markedly enhanced the inhibitory effects”, the “Rmax of ACh relaxation” value ([3]; F3P 10^−4 M + phosphatase) was 100 ± 1 and the “Rmax of ACh relaxation” value ([3]; F3P 10^−5 M + phosphatase) was 100 ± 1. The “effect on relaxant response to ACh” value ([3]; in the presence of phosphatase, disodium salt) was “enhanced; also recorded: increased the sensitivity of rat aortic rings to relaxation by ACh”, the “effect on relaxant response to SNP” value [4] was “not SNP” and the “maximum response to ACh under oxidant stress” value [5] was “the response was restored; also recorded: enhance endothelium-dependent relaxation in the presence of oxidant stress”. For the same molecule, the “change in heart rate (HR)” value [6] was “dose-dependent decrease in HR; also recorded: only small concentration dependent decreases” and the “change in mean arterial pressure (MAP)” value [6] was “dose-dependent decreases in MAP; also recorded: only small concentration dependent decreases”.
